Laboratory results from PubChem BioAssay AID330 (DTP/NCI, 2004).
Values joined by “and” are separate entries in the source; they are usually repeats but may differ in a detail not shown here. Equal entries are not always repeated. Inconclusive results and toxic doses are left out.

System: P388 leukemia ip, CD2F1 mice, survival T/C
Assay: NCI In Vivo Anticancer Drug Screen. Data for tumor model P388 Leukemia (intraperitoneal) in CD2F1 (CDF1) mice
Conditions: endpoint: median survival time, higher = longer survival
Summary of the method: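 Mice carrying the transplanted tumor received test compound or vehicle. Survival was recorded in each group, and the value is the treated-group measurement divided by that of the vehicle-treated control group.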

[1] = dose: 12.5 mg/kg/injection, schedule: Q01DX005 (ip), vehicle: Klucel (hydroxypropylcellulose) (HPC)
[2] = dose: 25.0 mg/kg/injection, schedule: Q01DX005 (ip), vehicle: Klucel (hydroxypropylcellulose) (HPC)
[3] = dose: 50.0 mg/kg/injection, schedule: Q01DX005 (ip), vehicle: Klucel (hydroxypropylcellulose) (HPC)
[4] = dose: 100.0 mg/kg/injection, schedule: Q01DX005 (ip), vehicle: Klucel (hydroxypropylcellulose) (HPC)
[5] = dose: 50.0 mg/kg/injection, schedule: Q01DX005 (ip), vehicle: saline with Tween-80
[6] = dose: 100.0 mg/kg/injection, schedule: Q01DX005 (ip), vehicle: saline with Tween-80
[7] = dose: 200.0 mg/kg/injection, schedule: Q01DX005 (ip), vehicle: saline with Tween-80
[8] = dose: 6.25 mg/kg/injection, schedule: Q01DX009 (ip), vehicle: water
[9] = dose: 100.0 mg/kg/injection, schedule: Q04DX002 (ip), vehicle: saline with Tween-80
[10] = dose: 60.0 mg/kg/injection, schedule: Q01DX005 (ip), vehicle: saline with Tween-80
[11] = dose: 120.0 mg/kg/injection, schedule: Q01DX005 (ip), vehicle: saline with Tween-80
[12] = dose: 240.0 mg/kg/injection, schedule: Q01DX005 (ip), vehicle: saline with Tween-80
[13] = dose: 100.0 mg/kg/injection, schedule: Q04DX003 (ip), vehicle: saline with Tween-80
[14] = dose: 200.0 mg/kg/injection, schedule: Q04DX003 (ip), vehicle: saline with Tween-80
[15] = dose: 200.0 mg/kg/injection, schedule: Q01DX005 (ip), vehicle: Klucel (hydroxypropylcellulose) (HPC)

## Nc1cccc2c1C(=O)c1cccc3snc-2c13
[1]
  T/C: 102 % of control
[2]
  T/C: 104 % of control
[3]
  T/C: 100 % of control and 97 % of control
[4]
  T/C: 87 % of control

## O=c1cnn(C2OC(CO)C(O)C2O)c(=O)[nH]1 (configuration not stated)
dose: 12.5 mg/kg/injection, schedule: Q01DX009 (ip), vehicle: Klucel (hydroxypropylcellulose) (HPC)
  T/C: 118 % of control and 120 % of control
dose: 25.0 mg/kg/injection, schedule: Q01DX009 (ip), vehicle: Klucel (hydroxypropylcellulose) (HPC)
  T/C: 109 % of control and 110 % of control

## CCc1ccc2c(c1)C(O)(c1ccccc1)c1c(c(-c3ccccc3)c3ccccc3c1-c1ccccc1)C2(O)c1ccccc1 (configuration not stated)
[5]
  T/C: 92 % of control
[6]
  T/C: 89 % of control
[7]
  T/C: 89 % of control

## NC(=O)c1[nH]c(/N=N/c2nc[nH]c2C(N)=O)nc1N
dose: 50.0 mg/kg/injection, schedule: Q01DX009 (ip), vehicle: Klucel (hydroxypropylcellulose) (HPC)
  T/C: 99 % of control
dose: 100.0 mg/kg/injection, schedule: Q01DX009 (ip), vehicle: Klucel (hydroxypropylcellulose) (HPC)
  T/C: 99 % of control
dose: 200.0 mg/kg/injection, schedule: Q01DX009 (ip), vehicle: Klucel (hydroxypropylcellulose) (HPC)
  T/C: 93 % of control

## Nc1nncs1
[8]
  T/C: 107 % of control and 108 % of control and 94 % of control
dose: 7.5 mg/kg/injection, schedule: Q01DX009 (ip), vehicle: water
  T/C: 112 % of control
dose: 15.0 mg/kg/injection, schedule: Q01DX009 (ip), vehicle: water
  T/C: 101 % of control
dose: 20.0 mg/kg/injection, schedule: Q01DX005 (ip), vehicle: saline
  T/C: 103 % of control and 109 % of control
dose: 30.0 mg/kg/injection, schedule: Q01DX009 (ip), vehicle: water
  T/C: 117 % of control
dose: 40.0 mg/kg/injection, schedule: Q01DX005 (ip), vehicle: saline
  T/C: 122 % of control
dose: 80.0 mg/kg/injection, schedule: Q01DX005 (ip), vehicle: saline
  T/C: 172 % of control and 188 % of control
dose: 120.0 mg/kg/injection, schedule: Q01DX009 (ip), vehicle: water
  T/C: 104 % of control
dose: 160.0 mg/kg/injection, schedule: Q01DX005 (ip), vehicle: saline
  T/C: 69 % of control

## CSCNC(=O)Nc1ccccc1
[5]
  T/C: 98 % of control
[6]
  T/C: 100 % of control
[7]
  T/C: 104 % of control

## c1ccc2c3c(ccc2c1)OCCOc1ccc2ccccc2c1-3
[9]
  T/C: 99 % of control
dose: 200.0 mg/kg/injection, schedule: Q04DX002 (ip), vehicle: saline with Tween-80
  T/C: 91 % of control
dose: 400.0 mg/kg/injection, schedule: Q04DX002 (ip), vehicle: saline with Tween-80
  T/C: 90 % of control

## CCOc1c(Cc2ccccc2)c(=O)n2c3ccccc3n(CC)c2c1C#N
dose: 7.5 mg/kg/injection, schedule: Q01DX005 (ip), vehicle: saline with Tween-80
  T/C: 100 % of control
dose: 15.0 mg/kg/injection, schedule: Q01DX005 (ip), vehicle: saline with Tween-80
  T/C: 102 % of control
dose: 30.0 mg/kg/injection, schedule: Q01DX005 (ip), vehicle: saline with Tween-80
  T/C: 101 % of control

## C/C(=N\NC(N)=Nc1ccccc1)c1ccc(Cl)c(Cl)c1
dose: 25.0 mg/kg/injection, schedule: Q04DX002 (ip), vehicle: saline with Tween-80
  T/C: 100 % of control
dose: 50.0 mg/kg/injection, schedule: Q04DX002 (ip), vehicle: saline with Tween-80
  T/C: 101 % of control
[9]
  T/C: 110 % of control

## O=[N+]([O-])c1ccc(N=Nc2ccc(N(CCO)CCO)cc2)cc1
dose: 60.0 mg/kg/injection, schedule: Q01DX005 (ip), vehicle: suspension in saline
  T/C: 95 % of control
dose: 120.0 mg/kg/injection, schedule: Q01DX005 (ip), vehicle: suspension in saline
  T/C: 97 % of control
dose: 240.0 mg/kg/injection, schedule: Q01DX005 (ip), vehicle: suspension in saline
  T/C: 98 % of control

## O=C(O)COc1cccc2c(=O)cc(-c3ccccc3)oc12
dose: 50.0 mg/kg/injection, schedule: Q01DX005 (ip), vehicle: saline
  T/C: 102 % of control
dose: 100.0 mg/kg/injection, schedule: Q01DX005 (ip), vehicle: saline
  T/C: 101 % of control
dose: 200.0 mg/kg/injection, schedule: Q01DX005 (ip), vehicle: saline
  T/C: 99 % of control

## Nc1n[n+](-c2ccccc2)no1
dose: 1.56 mg/kg/injection, schedule: Q01DX009 (ip), vehicle: water
  T/C: 110 % of control
dose: 1.56 mg/kg/injection, schedule: Q03HX015 (ip), vehicle: water
  T/C: 117 % of control
dose: 3.12 mg/kg/injection, schedule: Q01DX005 (ip), vehicle: water
  T/C: 104 % of control
dose: 3.12 mg/kg/injection, schedule: Q03HX015 (ip), vehicle: water
  T/C: 119 % of control
dose: 3.13 mg/kg/injection, schedule: Q01DX009 (ip), vehicle: water
  T/C: 104 % of control and 108 % of control and 117 % of control
dose: 3.13 mg/kg/injection, schedule: Q03HX015 (ip), vehicle: water
  T/C: 115 % of control
dose: 6.25 mg/kg/injection, schedule: Q01DX009 (ip), vehicle: saline
  T/C: 123 % of control
[8]
  T/C: 117 % of control and 118 % of control
dose: 6.25 mg/kg/injection, schedule: Q03HX003 (ip), vehicle: water
  T/C: 112 % of control
dose: 12.5 mg/kg/injection, schedule: Q03HX003 (ip), vehicle: water
  T/C: 117 % of control
dose: 25.0 mg/kg/injection, schedule: Q01DX001 (ip), vehicle: water
  T/C: 104 % of control
dose: 25.0 mg/kg/injection, schedule: Q01DX009 (ip), vehicle: saline
  T/C: 178 % of control
dose: 25.0 mg/kg/injection, schedule: Q01DX009 (ip), vehicle: water
  T/C: 169 % of control and 189 % of control and 195 % of control
dose: 25.0 mg/kg/injection, schedule: Q03HX003 (ip), vehicle: water
  T/C: 117 % of control
dose: 25.0 mg/kg/injection, schedule: Q03HX015 (ip), vehicle: water
  T/C: 161 % of control and 183 % of control
dose: 50.0 mg/kg/injection, schedule: Q01DX001 (ip), vehicle: water
  T/C: 120 % of control
dose: 50.0 mg/kg/injection, schedule: Q01DX009 (ip), vehicle: saline
  T/C: 214 % of control
dose: 50.0 mg/kg/injection, schedule: Q03HX003 (ip), vehicle: water
  T/C: 123 % of control
dose: 100.0 mg/kg/injection, schedule: Q01DX001 (ip), vehicle: water
  T/C: 114 % of control

## Cc1cc(C)[n+]([O-])c(C)c1
[10]
  T/C: 101 % of control
dose: 60.0 mg/kg/injection, schedule: Q01DX005 (ip), vehicle: saline
  T/C: 105 % of control
[11]
  T/C: 99 % of control
dose: 120.0 mg/kg/injection, schedule: Q01DX005 (ip), vehicle: saline
  T/C: 102 % of control
[12]
  T/C: 97 % of control
dose: 240.0 mg/kg/injection, schedule: Q01DX005 (ip), vehicle: saline
  T/C: 105 % of control

## Cc1noc(N)c1-n1c(C)ccc1C
[13]
  T/C: 95 % of control
[14]
  T/C: 100 % of control
dose: 400.0 mg/kg/injection, schedule: Q04DX003 (ip), vehicle: saline with Tween-80
  T/C: 100 % of control

## Nc1ncnc2c1ncn2C1SC(CO)C(O)C1O (configuration not stated)
[1]
  T/C: 92 % of control
[2]
  T/C: 100 % of control and 92 % of control
[3]
  T/C: 99 % of control and 96 % of control
[4]
  T/C: 104 % of control and 100 % of control
[15]
  T/C: 101 % of control and 92 % of control

## CCOC(=O)CCc1c(-c2ccccc2)[nH]c2ccccc12
[10]
  T/C: 106 % of control
[11]
  T/C: 107 % of control
[12]
  T/C: 101 % of control

## Nc1nc(Cl)c(Cl)nc1N
dose: 50.0 mg/kg/injection, schedule: Q01DX009 (ip), vehicle: saline with Tween-80
  T/C: 110 % of control
dose: 50.0 mg/kg/injection, schedule: Q04DX003 (ip), vehicle: saline with Tween-80
  T/C: 100 % of control
dose: 100.0 mg/kg/injection, schedule: Q01DX009 (ip), vehicle: saline with Tween-80
  T/C: 105 % of control
[13]
  T/C: 100 % of control
dose: 200.0 mg/kg/injection, schedule: Q01DX009 (ip), vehicle: saline with Tween-80
  T/C: 110 % of control
[14]
  T/C: 95 % of control

## O=C1c2ccccc2C(=O)c2c(-c3ccc(Cl)cc3)noc21
[3]
  T/C: 94 % of control
[4]
  T/C: 93 % of control
[15]
  T/C: 90 % of control

## ClC(Cl)Cl
dose: 0.25 % in 0.5 ml injection vol, schedule: Q01DX009 (ip), vehicle: water
  T/C: 100 % of control
dose: 0.5 % in 0.5 ml injection vol, schedule: Q01DX009 (ip), vehicle: water
  T/C: 96 % of control
dose: 1.0 % in 0.5 ml injection vol, schedule: Q01DX009 (ip), vehicle: water
  T/C: 100 % of control
